US20150328245A1, “Agents for Eliminating Tumour-Initiating Cells” (priority 2012, published 2015)

Assays:
Assay type in all cases: cell-based
[1] = system: DU145; experiment: In vitro colorimetric cell death assay (MTT); conditions: Homo sapiens, DU-145; DU145, MTT, 48 hours; read-out: IC 50
Procedure: (§1) It's an in vitro colorimetric assay for assessing cell viability where the cells are grown in Two-dimensional surface.
(§2) An exemplary procedure for the assay follows. Cancer cells and normal cells were plated in a 96 well plate as per predetermined plating efficiency. The plate was incubated for 24 hours in a 5% CO2 atmosphere at 37 degrees Celsius, a range of concentrations of the compounds I-1, I-2 and I-3 as well as cisplatin (known chemotherapeutic agents) were added to the separate wells, the plate was incubated further for 48 hours in a 5% CO2 atmosphere, the plate was centrifuged twice at 3000 rpm for 3 minutes, the supernatant fluid was discarded, 100 uL of 0.5 mg/mL MTT solution was added and the plate was incubated for 4 hours in a 5% CO2 atmosphere at 37 degrees Celsius. The plate was then centrifuged twice at 3000 rpm for 3 minutes, supernatant, was aspirated very carefully, 200 uL DMSO was added to each well to solubilize MTT crystals and mixed well by shaking the plate, the plate was incubated for 10 minutes in a 5% CO2 atmosphere at 37 degrees Celsius, the plate placed on the shaker of an ELISA plate reader and the absorbance at 570 nm was measured, then the percentage of viable cells remaining was calculated by first subtracting the background absorbance then comparing to the absorbance of a non-drug-treated cell sample, and the results were plotted on a graph to determine the IC50 for the compounds and cisplatin.

[2] = system: L 929; experiment: In vitro colorimetric cell death assay (MTT); conditions: Mus musculus, L929; L 929, MTT, 48 hours; read-out: IC 50
Procedure: as §1, §2

[3] = system: MCF-7; experiment: In vitro colorimetric cell death assay (MTT); conditions: Homo sapiens, MCF7; MCF-7, MTT, 48 hours
Procedure: as §1, §2

[4] = system: MCF10A (normal breast cell line); experiment: In vitro colorimetric cell death assay (MTT); conditions: 48 hours
Procedure: as §1, §2

[5] = system: MDAMB231; experiment: In vitro colorimetric cell death assay (MTT); conditions: Homo sapiens, MDA-MB-231, 48 hours
Procedure: as §1, §2

[6] = system: cancer cell lines; experiment: In vitro colorimetric cell death assay (MTT), overall statement
Procedure: as §1, §2

[7] = system: DU145; experiment: In vitro soft agar colony forming growth assay; conditions: Homo sapiens, DU-145, 168 h, one week
Procedure: (§3) The Soft Agar Assay for Colony Formation is considered the most stringent assay for detecting malignant transformation of cells. In this assay the cells are cultured in medium with low percentage of agar.
(§4) An exemplary procedure for the assay follows.

[8] = system: LNCaP; experiment: In vitro soft agar colony forming growth assay; conditions: Homo sapiens, 168 h, one week
Procedure: as §3, §4

[9] = system: MCF-7; experiment: In vitro soft agar colony forming growth assay; conditions: Homo sapiens, MCF7, 168 h; MCF-7, soft agar, one week
Procedure: as §3, §4

[10] = system: MDAMB231; experiment: In vitro soft agar colony forming growth assay; conditions: Homo sapiens, MDA-MB-231, 168 h; MDAMB231, soft agar, one week; read-out: IC 50
Procedure: as §3, §4

[11] = system: PC3; experiment: In vitro soft agar colony forming growth assay; conditions: Homo sapiens, PC-3, 168 h, one week
Procedure: as §3, §4

[12] = system: T47D; experiment: In vitro soft agar colony forming growth assay; conditions: Homo sapiens, 168 h, one week
Procedure: as §3, §4

[13] = system: breast cancer cells MDA MB 231; experiment: In vitro 3D primary sphere forming stem cell assay
Procedure: (§5) This assay measures the ability of cancer stem cells to form spheres in a serum free media where the spheres are in a suspended form. Through this assay we evaluated the potency of the compounds of the invention to kill cancer stem cells in comparison with the known chemotherapeutic agent Cisplatin.
(§6) An exemplary procedure for the assay follows. Cells were grown in three dimensions on a plastic substrate, harvested in suspension in serum-free media, then the cells in the sample were trypsinized and a single cell suspension was formed by passing through a cell strainer. The cells were diluted according to the predetermined plating efficiency for the cell line being studied by suspending the cells in stem cell culture medium. 100 uL of this suspension was added into each well of a 96 well suspension plate, and the plate was incubated at 37 degrees Celsius in 5% CO2 atmosphere for 24 hours, then 2 uL of appropriate concentrations of the compounds of the invention and cisplatin were added into each respective well along with 100 uL of stem cell culture medium, and the plates were incubated at 37 degrees Celsius under 5% CO2 atmosphere for 72 hours. 2.5 uL of the compounds of the invention and cisplatin were added to each respective well along with 50 uL of stem cell culture medium and then the plates were incubated at 37 degrees Celsius under 5% CO2 atmosphere for 72 hours. 3 uL of appropriate concentrations of the compounds of the invention and cisplatin were added to each respective well along with 50 uL of stem cell culture medium and then the plates were incubated at 37 degrees Celsius under 5% CO2 atmosphere for 72 hours, then the spheres formed were observed under a microscope then counted and scored by size.
(§7) Results of the in vitro 3D sphere forming stem cell assay are set forth in a tabular manner. The number in each box is the total number of spheres formed in the presence of either cisplatin or compound I-2 or compound I-3 at each drug concentration. GC refers to a growth control performed in the absence of drug or solvent (DMSO). GCD refers to a growth control performed in the absence of drug, but in the presence of DMSO.

[14] = system: breast cancer cells T47D; experiment: In vitro 3D primary sphere forming stem cell assay
Procedure: as §5, §6, §7

[15] = system: prostate cancer cells DU145; experiment: In vitro 3D primary sphere forming stem cell assay
Procedure: as §5, §6, §7

[16] = system: prostate cancer cells LNCaP; experiment: In vitro 3D primary sphere forming stem cell assay
Procedure: as §5, §6, §7

[17] = system: prostate cancer cells PC3; experiment: In vitro 3D primary sphere forming stem cell assay
Procedure: as §5, §6, §7

Q: For COc1cc2c(OC3OCC(OC)C(OC)C3O)c3c(c(-c4ccc5c(c4)OCO5)c2cc1OC)C(=O)OC3 (stereo not drawn) [I-2], which IC50 [1] is on record?
A: 2450 nM

Q: What about the IC50 [2] of the same compound?
A: 1380 nM

Q: And the IC50 [3]?
A: 954 nM

Q: What about the “IC50” value [4] of the same compound?
A: No Activity

Q: What about the IC50 [5] of the same compound?
A: 330 nM

Q: What about the “anticancer activity in cancer cell lines as compared to cisplatin” value [6] of the same compound?
A: high anticancer activity

Q: And the IC50 [7]?
A: 3160 nM

Q: What about the IC50 [8] of the same compound?
A: 700 nM

Q: And the IC50 [9]?
A: 620 nM

Q: And the IC50 [10]?
A: 3630 nM

Q: What about the IC50 [11] of the same compound?
A: 260 nM

Q: What about the IC50 [12] of the same compound?
A: 2390 nM

Q: And the “numbers of primary spheres formed, compared with cisplatin” value (shortened to “numbers … compared with cisplatin”) ([13]; MDA MB 231)?
A: significantly less

Q: What about the “# of 3D Primary Spheres Formed of Cells MDA MB231 (±SD)” value ([13]; final conc. 0.125 μM) of the same compound?
A: 60(±9)

Q: What about the “# of 3D Primary Spheres Formed of Cells MDA MB231 (±SD)” value ([13]; final conc. 1.25 μM) of the same compound?
A: 32(±5)

Q: What about the “# of 3D Primary Spheres Formed of Cells MDA MB231 (±SD)” value ([13]; final conc. 12.5 μM) of the same compound?
A: 14(±2)

Q: And the “# of 3D Primary Spheres Formed of Cells MDA MB231 (±SD)” value ([13]; final conc. 125 μM)?
A: 0(±0)

Q: What about the “# of 3D Primary Spheres Formed of Cells MDA MB231 (±SD)” value ([13]; final conc. 1250 μM) of the same compound?
A: 0(±0)

Q: And the “numbers … compared with cisplatin” value ([14]; T47D)?
A: significantly less

Q: What about the “# of 3D Primary Spheres Formed of Cells T47D (±SD)” value ([14]; final conc. 0.125 μM) of the same compound?
A: 84(±8)

Q: What about the “# of 3D Primary Spheres Formed of Cells T47D (±SD)” value ([14]; final conc. 1.25 μM) of the same compound?
A: 34(±5)

Q: What about the “# of 3D Primary Spheres Formed of Cells T47D (±SD)” value ([14]; final conc. 12.5 μM) of the same compound?
A: 28(±7)

Q: What about the “# of 3D Primary Spheres Formed of Cells T47D (±SD)” value ([14]; final conc. 125 μM) of the same compound?
A: 14(±4)

Q: What about the “# of 3D Primary Spheres Formed of Cells T47D (±SD)” value ([14]; final conc. 1250 μM) of the same compound?
A: 0(±0)

Q: What about the “numbers … compared with cisplatin” value ([15]; DU145) of the same compound?
A: significantly less

Q: And the “# of 3D Primary Spheres Formed of Cells DU145 (±SD)” value ([15]; final conc. 0.125 μM)?
A: 53(±5)

Q: And the “# of 3D Primary Spheres Formed of Cells DU145 (±SD)” value ([15]; final conc. 1.25 μM)?
A: 41(±4)

Q: What about the “# of 3D Primary Spheres Formed of Cells DU145 (±SD)” value ([15]; final conc. 12.5 μM) of the same compound?
A: 18(±7)

Q: And the “# of 3D Primary Spheres Formed of Cells DU145 (±SD)” value ([15]; final conc. 125 μM)?
A: 7(±1)

Q: And the “# of 3D Primary Spheres Formed of Cells DU145 (±SD)” value ([15]; final conc. 1250 μM)?
A: 0(±0)

Q: What about the “numbers … compared with cisplatin” value ([16]; LNCaP) of the same compound?
A: significantly less

Q: And the “# of 3D Primary Spheres Formed of Cells LNCaP (±SD)” value ([16]; final conc. 0.125 μM)?
A: 98(±17)

Q: What about the “# of 3D Primary Spheres Formed of Cells LNCaP (±SD)” value ([16]; final conc. 1.25 μM) of the same compound?
A: 49(±6)

Q: And the “# of 3D Primary Spheres Formed of Cells LNCaP (±SD)” value ([16]; final conc. 12.5 μM)?
A: 6(±2)

Q: And the “# of 3D Primary Spheres Formed of Cells LNCaP (±SD)” value ([16]; final conc. 125 μM)?
A: 0(±0)

Q: What about the “# of 3D Primary Spheres Formed of Cells LNCaP (±SD)” value ([16]; final conc. 1250 μM) of the same compound?
A: 0(±0)

Q: What about the “numbers … compared with cisplatin” value ([17]; PC3) of the same compound?
A: significantly less

Q: What about the “# of 3D Primary Spheres Formed of Cells PC3 (±SD)” value ([17]; final conc. 0.125 μM) of the same compound?
A: 81(±9)

Q: And the “# of 3D Primary Spheres Formed of Cells PC3 (±SD)” value ([17]; final conc. 1.25 μM)?
A: 69(±3)

Q: What about the “# of 3D Primary Spheres Formed of Cells PC3 (±SD)” value ([17]; final conc. 12.5 μM) of the same compound?
A: 63(±8)

Q: And the “# of 3D Primary Spheres Formed of Cells PC3 (±SD)” value ([17]; final conc. 125 μM)?
A: 31(±6)

Q: What about the “# of 3D Primary Spheres Formed of Cells PC3 (±SD)” value ([17]; final conc. 1250 μM) of the same compound?
A: 0(±0)
